One data set has as its target T1, RXFP1 (Homo sapiens, UniProt Q9HBX9).
T1 sequence (Q9HBX9 1-757): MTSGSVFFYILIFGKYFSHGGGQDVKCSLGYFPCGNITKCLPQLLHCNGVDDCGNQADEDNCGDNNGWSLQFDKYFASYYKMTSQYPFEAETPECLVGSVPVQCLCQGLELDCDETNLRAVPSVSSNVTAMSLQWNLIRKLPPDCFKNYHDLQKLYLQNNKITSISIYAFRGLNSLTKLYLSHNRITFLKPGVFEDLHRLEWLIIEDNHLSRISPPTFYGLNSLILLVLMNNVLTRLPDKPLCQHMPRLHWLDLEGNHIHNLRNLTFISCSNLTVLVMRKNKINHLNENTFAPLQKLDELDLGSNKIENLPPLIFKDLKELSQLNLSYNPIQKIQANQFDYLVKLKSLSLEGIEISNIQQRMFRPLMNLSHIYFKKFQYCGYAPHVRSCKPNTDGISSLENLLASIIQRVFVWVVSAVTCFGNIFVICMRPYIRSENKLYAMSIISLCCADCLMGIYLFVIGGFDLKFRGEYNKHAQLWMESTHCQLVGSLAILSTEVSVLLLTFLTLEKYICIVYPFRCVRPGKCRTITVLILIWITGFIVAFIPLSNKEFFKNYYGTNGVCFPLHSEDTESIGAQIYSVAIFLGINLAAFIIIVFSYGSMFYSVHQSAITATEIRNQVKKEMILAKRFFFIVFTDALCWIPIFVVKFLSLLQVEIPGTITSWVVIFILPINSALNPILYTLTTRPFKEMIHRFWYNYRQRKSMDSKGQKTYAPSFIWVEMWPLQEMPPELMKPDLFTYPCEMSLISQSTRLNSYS
As to the kind of experiment: OVCAR5 cAMP assay (RXFP1 agonist activity, HTRF). The note with it: for Emax: OVCAR-5, read-out: cAMP assay in OVCAR 5 cells Emax, maximal intracellular cAMP relative to H2-relaxin in the same test occasion. On the technique in general: Changes in cAMP serve as a functional read-out for many G protein-coupled receptors.

The nature of data set [1]: Solubility testing of peptides in buffer. The format is physicochemical. The following applies: Phosphate buffer 50 mM pH 7.4; target solubility 2.0 mg/ml; ~19 h; read-out: Solubility phosphate buffer pH 7.4.
Data set [2] is described as follows: Stability in human plasma. The format is in vitro ADME. The following applies: 37° C.; for Human Plasma stability % remaining, T = 0: 5 μM; for remaining at 1 h, 5 μM / remaining at 4 h, 5 μM: human plasma (sodium or lithium heparin). Here is the method:
(§1) Prior to the testing of stability in plasma of a peptide batch, its purity (HPLC-UV) was determined.
(§2) Rat and Human plasma: anti-coagulant sodium or lithium heparin.
(§3) 100 μM solution of study compound in 50 mM Phosphate buffer pH 7.4.
(§4) 950 μL plasma is pre-incubated for 5 min at 37° C. 50 μL of compound stock solution is added. Final compound concentration=5 μM. Vortex and transfer 1504, plasma into an Eppendorf for each time point. The time points 0-1 and −4 h are carried out in duplicate for each species.
(§5) After incubation extract 1504, plasma with 6004, Acetonitrile containing with 1% TFA. Vortex and centrifuge 10 min at 14600 rpm. Dry 2004, supernatant under N2. Reconstitute sample in 200 μL of H2O/CH3CN 98/2+0.1% FA+50 ng/ml Labetalol and analyze using the analytical system used in solubility and stability studies.
(§6) For determination of the amount of the remaining peptide, the peak areas of the target compound at t0 and each time point […] were compared, resulting in “% remaining peptide”, following the equation
(§7) % remaining peptide=[(peak area peptide time)×100]/peak area peptide t0. The stability is expressed as “% remaining peptide”.

The next data set in a line: Stability in rat plasma. The format is in vitro ADME. The following applies: 37° C.; for Rat plasma stability % remaining, T = 0: 5 μM; for remaining at 1 h, 5 μM / remaining at 4 h, 5 μM: rat plasma (sodium or lithium heparin). On the procedure:
as §1, §2, §3, §4, §5, §6, §7

Non-standard residues stand in square brackets, D forms with d. Residues, ends and D or L forms follow the SMILES beside them. 1Nal = N[C@@H](Cc1cccc2ccccc12)C(=O)O; Nle = CCCC[C@H](N)C(=O)O; Aib = CC(C)(N)C(=O)O Some results are limits rather than exact numbers.

For `CCCC[C@H](NC(=O)CNC(=O)[C@H](CCC(=O)O)NC(=O)C(C)(C)NC(=O)C(C)(C)NC(=O)[C@@H](NC(=O)[C@H](CCC(N)=O)NC(=O)[C@H](CCCNC(=N)N)NC(=O)[C@H](CCCNC(=N)N)NC(=O)[C@@H](NC(=O)[C@H](CCCCN)NC(=O)[C@H](CCC(=O)O)NC(=O)[C@H](CCCNC(=N)N)NC(=O)CNC(=O)[C@H](CCC(=O)O)NC(=O)[C@H](CC(C)C)NC(C)=O)C(C)C)[C@@H](C)CC)C(=O)N[C@@H](CO)C(=O)N[C@H](C(=O)N[C@@H](Cc1c[nH]c2ccccc12)C(=O)N[C@@H](CO)C(=O)NC(C)(C)C(=O)N[C@@H](CCCNC(=N)N)C(=O)N[C@@H](CCCCN)C(=O)N[C@@H](CCCCN)C(N)=O)[C@@H](C)O` [compound 49] (Ac-LEGREKVRRQI[Aib][Aib]EG[Nle]STWS[Aib]RKK-NH2), at RXFP1, the Emax was 95%. Moreover, in data set [1], the solubility was no less than 2500 µg/mL.
“Ac-VIKLSGRELVRAQIAISGMSTWSKRSL-NH2 [AcB7-33 C11.23S, reference compound]”: in data set [2], the “Human Plasma stability % remaining, T = 0” value was determined as 100%. The “Rat plasma stability % remaining, T = 0” value in “Stability in rat plasma” amounted to 100%.
On to `CC[C@H](C)[C@H](NC(=O)[C@H](CCC(N)=O)NC(=O)[C@H](C)NC(=O)[C@H](CCCNC(=N)N)NC(=O)[C@@H](NC(=O)[C@H](CCCCN)NC(=O)[C@H](CCC(=O)O)NC(=O)[C@H](CCCNC(=N)N)NC(=O)CNC(=O)[C@H](CCC(=O)O)NC(=O)[C@H](CC(C)C)NC(C)=O)C(C)C)C(=O)NC(C)(C)C(=O)N[C@H](C(=O)N[C@@H](CCC(=O)O)C(=O)NCC(=O)N[C@@H](CCSC)C(=O)N[C@@H](CO)C(=O)N[C@@H](CCCCN)C(=O)N[C@@H](Cc1c[nH]c2ccccc12)C(=O)N[C@@H](CO)C(=O)N[C@@H](CCCCN)C(=O)N[C@@H](CCCNC(=N)N)C(=O)N[C@@H](CCCCN)C(=O)N[C@@H](CCCCN)C(N)=O)[C@@H](C)CC` [compound 1] (Ac-LEGREKVRAQI[Aib]IEGMSKWSKRKK-NH2), for which, at RXFP1, the Emax stood at 91%. Moreover, in data set [2], the “Human Plasma stability % remaining, T = 0” value stood at 100%; the share remaining at 1 h, 5 μM was 71%; the fraction remaining at 4 h, 5 μM stood at 55%. In addition, in “Stability in rat plasma”, the “Rat plasma stability % remaining, T = 0” value is 100%; the amount remaining at 1 h, 5 μM is 72%; the amount remaining at 4 h, 5 μM stood at 17%.
As to `CC[C@H](C)[C@H](NC(=O)[C@H](CCC(N)=O)NC(=O)[C@H](C)NC(=O)[C@H](CCCNC(=N)N)NC(=O)[C@@H](NC(=O)[C@H](CCCCN)NC(=O)[C@H](CCC(=O)O)NC(=O)[C@H](CCCNC(=N)N)NC(=O)CNC(=O)[C@H](CCC(=O)O)NC(=O)[C@H](CC(C)C)NC(C)=O)C(C)C)C(=O)NC(C)(C)C(=O)NC(C)(C)C(=O)N[C@@H](CCC(=O)O)C(=O)NCC(=O)N[C@@H](CCSC)C(=O)N[C@@H](CO)C(=O)N[C@@H](CCCCN)C(=O)N[C@@H](Cc1c[nH]c2ccccc12)C(=O)N[C@@H](CO)C(=O)N[C@@H](CCCCN)C(=O)N[C@@H](CCCNC(=N)N)C(=O)N[C@@H](CCCCN)C(=O)N[C@@H](CCCCN)C(N)=O` [compound 2] (Ac-LEGREKVRAQI[Aib][Aib]EGMSKWSKRKK-NH2), the Emax at RXFP1 stood at 99%. In addition, in data set [2], the “Human Plasma stability % remaining, T = 0” value is 100%; the fraction remaining at 1 h, 5 μM was 80%; the share remaining at 4 h, 5 μM was determined as 79%. Also, in “Stability in rat plasma”, the “Rat plasma stability % remaining, T = 0” value came out at 100%; the fraction remaining at 1 h, 5 μM amounted to 57%; the amount remaining at 4 h, 5 μM came to 24%.
As for “H-VIKLSGRELVRAQIAISGMSTWSKRSL-NH2 [B7-33 C11.23S, reference compound]”, the “Human Plasma stability % remaining, T = 0” value in data set [2] came to 100%. The “Rat plasma stability % remaining, T = 0” value in the data set “Stability in rat plasma” turned out to be 100%.
As for `CCCC[C@H](NC(=O)CNC(=O)[C@H](CCC(=O)O)NC(=O)C(C)(C)NC(=O)C(C)(C)NC(=O)[C@@H](NC(=O)[C@H](CCC(N)=O)NC(=O)[C@H](C)NC(=O)[C@H](CCCNC(=N)N)NC(=O)[C@@H](NC(=O)[C@H](CCCCN)NC(=O)[C@H](CCC(=O)O)NC(=O)[C@H](CCCNC(=N)N)NC(=O)CNC(=O)[C@H](CCC(=O)O)NC(=O)[C@H](CC(C)C)NC(C)=O)C(C)C)[C@@H](C)CC)C(=O)N[C@@H](CO)C(=O)N[C@@H](CCCCN)C(=O)N[C@@H](Cc1cccc2ccccc12)C(=O)N[C@@H](CO)C(=O)N[C@@H](CCCCN)C(=O)N[C@@H](CCCNC(=N)N)C(=O)N[C@@H](CCCCN)C(=O)N[C@@H](CCCCN)C(N)=O` [compound 14] (Ac-LEGREKVRAQI[Aib][Aib]EG[Nle]SK[1Nal]SKRKK-NH2), the Emax on RXFP1 was 106%. The compound also returned an EC50 at RXFP1 (cAMP assay in OVCAR 5 cells EC50 (nM), OVCAR5 cells expressing endogenous RXFP1, cAMP by HTRF, 30 min at 37° C., 1 mM IBMX) of 32.8 nM.
For the compound “Ac-VIKLSGRELVRAQIAISGMSTWSKKKK-NH2 [KKKK(AcB7-29 C11.23S), reference compound]”, the “Human Plasma stability % remaining, T = 0” value in data set [2] turned out to be 100%. In addition, the “Rat plasma stability % remaining, T = 0” value in “Stability in rat plasma” amounted to 100%.
For `CCCC[C@H](NC(=O)CNC(=O)[C@H](CCC(=O)O)NC(=O)C(C)(C)NC(=O)C(C)(C)NC(=O)[C@@H](NC(=O)[C@H](CCCCNC(C)=O)NC(=O)[C@H](C)NC(=O)[C@H](CCCNC(=N)N)NC(=O)[C@@H](NC(=O)[C@H](CCCCN)NC(=O)[C@H](CCC(=O)O)NC(=O)[C@H](CCCNC(=N)N)NC(=O)CNC(=O)[C@H](CCC(=O)O)NC(=O)[C@H](CC(C)C)NC(C)=O)C(C)C)[C@@H](C)CC)C(=O)N[C@@H](CO)C(=O)N[C@H](C(=O)N[C@@H](Cc1c[nH]c2ccccc12)C(=O)N[C@@H](CO)C(=O)NC(C)(C)C(=O)N[C@@H](CCCNC(=N)N)C(=O)N[C@@H](CCCCN)C(=O)N[C@@H](CCC(N)=O)C(N)=O)[C@@H](C)O` [compound 31] (Ac-LEGREKVRAK(Ac)I[Aib][Aib]EG[Nle]STWS[Aib]RKQ-NH2), the Emax on RXFP1 turned out to be 96%.
The same measure, in the same setting: next, `CC[C@H](C)[C@H](NC(=O)[C@H](CCC(N)=O)NC(=O)[C@H](C)NC(=O)[C@H](CCCNC(=N)N)NC(=O)[C@@H](NC(=O)[C@H](CCCCN)NC(=O)[C@H](CCC(=O)O)NC(=O)[C@H](CCCNC(=N)N)NC(=O)CNC(=O)[C@H](CCC(=O)O)NC(=O)[C@@H](N)CC(C)C)C(C)C)C(=O)NC(C)(C)C(=O)N[C@H](C(=O)N[C@@H](CCC(=O)O)C(=O)NCC(=O)N[C@@H](CCSC)C(=O)N[C@@H](CO)C(=O)N[C@@H](CCCCN)C(=O)N[C@@H](Cc1c[nH]c2ccccc12)C(=O)N[C@@H](CO)C(=O)N[C@@H](CCCCN)C(=O)N[C@@H](CCCNC(=N)N)C(=O)N[C@@H](CCCCN)C(=O)N[C@@H](CCCCN)C(N)=O)[C@@H](C)CC` [compound 6] (H-LEGREKVRAQI[Aib]IEGMSKWSKRKK-NH2): 97%; `CCCC[C@H](NC(=O)CNC(=O)[C@H](CCC(=O)O)NC(=O)C(C)(C)NC(=O)C(C)(C)NC(=O)[C@@H](NC(=O)[C@H](CCCCNC(C)=O)NC(=O)[C@H](C)NC(=O)[C@H](CCCNC(=N)N)NC(=O)[C@@H](NC(=O)[C@H](CCCCN)NC(=O)[C@H](CCC(=O)O)NC(=O)[C@H](CCCNC(=N)N)NC(=O)CNC(=O)[C@H](CCC(=O)O)NC(=O)[C@H](CC(C)C)NC(C)=O)C(C)C)[C@@H](C)CC)C(=O)N[C@@H](CO)C(=O)N[C@H](C(=O)N[C@@H](Cc1c[nH]c2ccccc12)C(=O)N[C@@H](CO)C(=O)NC(C)(C)C(=O)N[C@@H](CCCNC(=N)N)C(=O)N[C@@H](CCCCNC(C)=O)C(=O)N[C@@H](CCCCNC(C)=O)C(N)=O)[C@@H](C)O` [compound 28] (Ac-LEGREKVRAK(Ac)I[Aib][Aib]EG[Nle]STWS[Aib]RK(Ac)K(Ac)-NH2): 92%.

In general, Emax refers to the size of the effect at its maximum, as opposed to the concentration needed. By solubility is commonly meant how much of the substance goes into solution per volume. In general, amount remaining refers to what is left of the initial amount, in per cent. A higher amount remaining goes with less turnover. For orientation: EC50 means the midpoint of the concentration-response curve. The low end stands for an effect from little substance, the high end for a need for much substance.

For the origin of these results see patent publication US10988524B2, “Modified relaxin B chain peptides and their therapeutic use” (priority 2018, dated 2021).
